This note sets out measurements from EP1614683B1, “Indazole compounds and pharmaceutical compositions for inhibiting protein kinases, and methods for their use” (priority 1999, dated 2001).

One data set is described as follows: in vitro. It is filed as in vitro ADME, human. The following applies: human liver microsomes, 5 µM test compound, 37 °C, 2 h. The essentials: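 HLM diluted to 5 mg/mL in 100 mM KPO4, preincubated 10 min at 37 °C with NADPH-regenerating system. Compound (5 µM final) incubated at 37 °C in triplicate, sampled at 0 and 2 h into ice-cold acetonitrile, then LC-MS analysis.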

Data set [1] relates to VEGF dependent retinal vascular development. As to the kind of experiment: In vivo assay of retinal vascular development in neonatal rats. The settings on record: Model P8, intravitreal, vehicle PEG/water 50:50. Further details: species or system rat. The procedure, abridged:
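Neonatal rats given compound by intravitreal injection, vehicle usually 50% PEG 400/50% 300 mM sucrose, with vehicle in contralateral eye. Retinas removed six days later, ADPase-stained and flat-mounted; stained vessel area quantified by imaging and expressed as percent regression versus vehicle eye.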

Data set [2] deals with VEGF dependent retinal neovascularization. Put plainly: Neonatal rat model of retinopathy of prematurity. The settings on record: Model ROP, intravitreal, 10 mg/ml, vehicle PEG/water 70:30. The data set is classed as in vivo.
Data set [3] deals with phosphorylated VEGF-R2Δ50 (Homo sapiens, UniProt P35968, DEL940-989/E990V). Put plainly: biochemical. The following applies: read-out: FLVK -P** (% inhibition).
phosphorylated VEGF-R2Δ50, sequence (P35968 with tags, fused parts or gaps DEL940-989/E990V limits assumed): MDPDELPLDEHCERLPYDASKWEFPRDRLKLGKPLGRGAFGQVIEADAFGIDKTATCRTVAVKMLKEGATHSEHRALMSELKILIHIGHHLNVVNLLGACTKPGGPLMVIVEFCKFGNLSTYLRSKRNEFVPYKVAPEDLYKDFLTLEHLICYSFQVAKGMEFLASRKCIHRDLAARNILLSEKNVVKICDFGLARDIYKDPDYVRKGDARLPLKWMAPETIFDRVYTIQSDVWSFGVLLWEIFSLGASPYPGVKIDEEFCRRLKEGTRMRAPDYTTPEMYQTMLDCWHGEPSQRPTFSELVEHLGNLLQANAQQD
In the next data set the target is human FGF-R1 (Homo sapiens, UniProt P11362, C488A/C584S/L457V). Put plainly: FGF-R spectrophotometric assay. The data set is classed as biochemical. The following applies: Table 1; compound concentration 1 µM; read-out: FGF-P* (% inhibition). Here is the method: The spectrophotometric assay was carried out as described above for VEGF-R2, except for the following changes in concentration: FGF-R = 50 nM, ATP = 2 mM, and poly(E4Y1) =15 mM.
human FGF-R1, sequence (P11362 456-766 L457V/C488A/C584S): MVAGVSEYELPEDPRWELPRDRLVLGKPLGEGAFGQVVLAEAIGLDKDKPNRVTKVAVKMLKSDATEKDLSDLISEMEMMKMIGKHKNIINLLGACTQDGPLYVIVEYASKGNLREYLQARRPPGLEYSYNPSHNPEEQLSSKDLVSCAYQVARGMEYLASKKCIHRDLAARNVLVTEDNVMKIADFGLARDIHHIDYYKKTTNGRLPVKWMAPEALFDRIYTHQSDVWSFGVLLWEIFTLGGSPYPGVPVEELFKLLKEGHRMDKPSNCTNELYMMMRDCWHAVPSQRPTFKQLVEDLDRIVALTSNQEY

In data set [4] the test system is lung cancer cells (line MV522). Put plainly: Cancer cell proliferation (MV522) assay. It is filed as cell-based. The settings on record: MV522; Table 1; read-out: MV522 IC50. The procedure, abridged: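 MTT reduction read-out was taken 72 h after addition of test agents, with no prior serum starvation. Cells were plated beforehand at two thousand per well in RPMI1640 containing 10% FBS and 2 mM glutamine and allowed one day to adhere.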

Data set [5] deals with unphosphorylated VEGF-R2Δ50 (Homo sapiens, UniProt P35968, DEL940-989/E990V). As to the kind of experiment: biochemical. The settings on record: read-out: FLVK ** (% inhibition).
unphosphorylated VEGF-R2Δ50, sequence (P35968 with tags, fused parts or gaps DEL940-989/E990V limits assumed): as the sequence (P35968 with tags, fused parts or gaps DEL940-989/E990V limits assumed) above
For data set [6] the following is noted: vehicle PEG400:H2O pH 2.3 30:70.
Another data set can be described thus: in vivo. The following applies: mouse, plasma, pH 2.3.

Where two headings read alike, the source gives them in different places.

Turning to `CCONC(=O)c1ccccc1Sc1ccc2c(/C=C/c3ccccn3)n[nH]c2c1` [Reference Example 35(dd), 6-[2-(ethoxycarbamoyl)phenylsufanyl]-3-E-[2-(pyridin-2-yl)ethenyl]-1H-indazole], the “% remain (HLM, 2 h)” value in “in vitro” amounted to 26%. The “Initial Evaluation” value in data set [1] (5 mg/ml) is reported as “++/+++ var”.

For `CCn1nc(C)cc1C(=O)Nc1cccc(C(=O)c2ccc3c(/C=C/c4ccccn4)n[nH]c3c2)c1` [Reference Example 41(a), 6-[3-((1-Ethyl-3-methyl-1H-pyrazol-5-yl)carboxamido)benzoyl]. 3-E-[2-(pyridin-2-yl)ethenyl]-1H-indazole], the “% remain (HLM, 2 h)” value in the data set “in vitro” is recorded as 96%. For the same compound, the “% Inhibition” value in data set [1] (0.5 mg/ml) is reported as 0%. In addition, in [2], the “% Inhibition” value was determined as 64% and the “Initial Evaluation” value is listed as “+++ (three pluses give to retinas with near total regression (approximately 75% or greater))”. For the same compound, the inhibition at 0.05 µM in data set [3] worked out at 94%.

In the case of `CCn1nc(C)cc1C(=O)Nc1cc(C(=O)c2ccc3c(/C=C/c4ccccn4)n[nH]c3c2)ccc1C` [Reference Example 41(ee), 6-[3-((1-Ethyl-3-methyl-1H-pyrazol-5-yl)carboxamido)-4-methylbenzoyl]-3-E-[2-(pyridin-2-yl)ethenyl]-1H-indazole], at human FGF-R1, the inhibition at 1 µM stood at 94%. Besides, the IC50 in data set [4] was 9.4 µM. The “% remain (HLM, 2 h)” value in the data set “in vitro” worked out at 47%.

Take `CCCn1nc(C)cc1C(=O)Nc1cccc(C(=O)c2ccc3c(/C=C/c4ccccn4)n[nH]c3c2)c1` [Reference Example 41(r)]: at human FGF-R1, the inhibition at 1 µM came out at 92%. In addition, the “% remain (HLM, 2 h)” value in the data set “in vitro” is listed as 83%. Further, the inhibition at 0.05 µM in [5] was found to be 100%.

Regarding `CC(C)ONC(=O)c1ccccc1Sc1ccc2c(/C=C/c3ccccn3)n[nH]c2c1` [Reference Example 35(k)], at human FGF-R1, the inhibition at 1 µM is 34%. Besides, in “in vitro”, the “% remain (HLM, 2 h)” value was found to be 14%. For the same compound, the inhibition at 0.05 µM in data set [5] stood at 85%.

As to `O=C(NNc1ccccn1)c1ccccc1Sc1ccc2c(/C=C/c3ccccn3)n[nH]c2c1` [Reference Example 35(n), 6-[2-(N^2-(pyrid-2-ylhydrazino)carbonyl)phenylsulfanyl]-3-E-[2-(pyridin-2-yl)ethenyl]-1H-indazole], the IC50 in [4] amounted to 5.1 µM. In the data set “in vitro”, the “% remain (HLM, 2 h)” value is listed as 47%.

With `C#CCNC(=O)c1ccccc1Sc1ccc2c(/C=C/c3ccccn3)n[nH]c2c1` [Reference Example 35(cc), 6-[2-(2-Propynylcarbamoyl)phenylsulfany]-3-E-[2-(pyridin-2-yl)ethenyl]-1H-indazole], the inhibition at 1 µM on human FGF-R1 came to 74%. In addition, in “in vitro”, the “% remain (HLM, 2 h)” value worked out at 31%. The inhibition at 0.05 µM in [5] came out at 89%.

Take `CCn1nc(C)cc1C(=O)Nc1cccc(Oc2ccc3c(/C=C/c4ccccn4)n[nH]c3c2)c1` [Reference Example 31(d), 6-[3-((1-Ethyl-3-methyl-1H-pyrazol-5-yl)carboxamido)phenoxy]-3-E-[2-(pridin-2-yl)ethenyl]-1H-indazole]: the IC50 in [4] stood at 5.2 µM. Further, in “in vitro”, the “% remain (HLM, 2 h)” value amounted to 110%. The T1/2 in data set [6] (IP, 25 mg/kg) is 5.3 h; in data set [6] (PO, 10 mg/kg) it was 3.1 h; in [6] (PO, 25 mg/kg), 1.9 h; in data set [6] (PO, 50 mg/kg), 39.3 h. Further, the AUC in the data set “in vivo” (ip, 25 mg/kg) was found to be 238 µg·h/mL; in “in vivo” (po, 10 mg/kg) it was 49.1 µg·h/mL; in the data set “in vivo” (po, 25 mg/kg), 204 µg·h/mL; in “in vivo” (po, 50 mg/kg), 431 µg·h/mL. Also, the inhibition at 0.05 µM in data set [5] was found to be 96%.
